Assay results reported in US6759431B2, “Compositions and methods for treating or preventing diseases of body passageways” (Angiotech Pharmaceuticals, Inc., priority 1996, dated 2004).
Values joined by “and” are separate entries in the source; they are usually repeats but may differ in a detail not shown here. Equal values may be shown once. Read-outs that look alike come from different tables or passages of the source.

What was measured:
[1] = Complexation of paclitaxel with cyclodextrins (stability constants); format: physicochemical; conditions: for estimated stability constants for first order complexes of paclitaxel-cyclodextrins / stability constants for second order complexes of paclitaxel-cyclodextrins: water, 37° C.
Protocol: Excess amounts of paclitaxel (5 mg) were added to aqueous solutions containing various concentrations of γ-CD, HPγ-CD, or HPβ-CD and tumbled gently for about 24 hours at 37° C. After equilibration, aliquots of the suspension were filtered through a 0.45 μm membrane filter (Millipore), suitably diluted and analyzed using HPLC. […] Aliquots were taken at various time intervals and assayed for paclitaxel.

[2] = Release from 50:50 ELVAX:poly-l-lactic acid microspheres, tumbling at 37° C.; format: physicochemical; conditions: 18 hours tumbling at 37° C.
Protocol: Five hundred micrograms of either paclitaxel or baccatin (a paclitaxel analog, available from Inflazyme Pharmaceuticals Inc., Vancouver, British Columbia, Canada) are dissolved in 1 ml of a 50:50 ELVAX:poly-1-lactic acid mixture in dcm. Microspheres are then prepared in a dissolution machine (Six-spindle dissolution tester, VanderKanp, Van Kell Industries Inc., U.S.A.) in triplicate at 200 rpm, 42° C., for 3 hours. Microspheres so prepared are washed twice in water and sized on the microscope.
Determination of paclitaxel encapsulation is undertaken in a uv/vis assay (uv/vis lambda max. at 237 nm, fluorescence assay at excitation 237, emission at 325 nm; Fluorescence results are presented in square brackets [ ]).

[3] = Solubility of paclitaxel in cyclodextrin solutions; format: physicochemical; conditions: 50% HPβCD in water, 37° C.
Protocol: Excess amounts of paclitaxel (5 mg) were added to aqueous solutions containing various concentrations of γ-CD, HPγ-CD, or HPβ-CD and tumbled gently for about 24 hours at 37° C. After equilibration, aliquots of the suspension were filtered through a 0.45 μm membrane filter (Millipore), suitably diluted and analyzed using HPLC. The mobile phase was composed of a mixture of acetonitrile, methanol and water (58:5:37) at a flow rate of 1.0 ml min^−1.

[4] = Stability of paclitaxel in cyclodextrin solutions; format: physicochemical
Protocol: The solutions containing 20% HPβCD or HPγCD had pH values of 3.9 and 5.2, respectively. The stability of paclitaxel in cyclodextrin solutions was investigated by assaying paclitaxel in solutions (20 μg ml^−1) containing 10 or 20% HPγ-CD or HPβ-CD in either water or a 50:50 water-ethanol mixture at 37° C. or 55° C. at various time intervals. In addition, stability of paclitaxel in solutions (1 μg/ml) containing 1%, 2% or 5% HPβCD at 55° C. were determined.

[5] = test system: CAM; format: in vivo, chick; conditions: for drug loading that was toxic to the embryo: chick, in vivo
Protocol: Vinca alkaloids (vinblastine and vincristine) were ground with a pestle and mortar to reduce the particle size to below 5 microns. They were then mixed as a dry powder with polycaprolactone (molecular wt. 18000 Birmingham Polymers, AL USA). The mixture is heated to 65° C. for 5 minutes and the molten polymer/agent mixture is stirred into a smooth paste for 5 minutes. The molten paste is then taken into a 1 ml syringe and extruded to form 3 mg pellets. These pellets were then tested in the CAM assay.

[6] = test system: normal human bone marrow cells; experiment: Radiometric (Bactec) cytotoxicity, marrow cells; format: cell-based
Protocol: Normal human bone marrow (histologically negative for tumor cells) was obtained from patients who were to have bone marrow transplants for their solid tumors but died before the marrow was used. After centrifugation, the buffy coat was removed and cells were treated with lysis buffer and washed twice with and then resuspended in RPMI 1640 with 20% HIFBS. The cells were drawn through a 25 g needle and counted.
(§1) The Bactec system (Johnston Laboratories, Towson, Md.) is based on a clinical instrument which was developed to detect bacteria in blood cultures and has been used to screen for new antineoplastic agents. This radiometric system is a rapid, semiautomated system which utilizes the inhibition of the conversion of ^14C glucose to […] as an index of cytotoxicity. The Bactec machine automatically flushes out the ^14CO2 into an ion chamber where the signal of the radiolabelled CO2 is changed into a proportional electrical signal or growth index value on a scale of 1 to 1000. […] The growth index values of BMOV treated cells were compared to the growth index values of non-treated cells and the % survival compared to untreated controls was calculated.

[7] = test system: HT-29 colon, MCF-7 breast and SKMES1 non-small cell lung human tumor cell lines; experiment: Radiometric (Bactec) cytotoxicity, tumor cell lines; format: cell-based; conditions: continuous exposure
Protocol: A. Human Tumor Cell Lines The HT-29 colon, MCF-7 breast and SKMES1 non-small cell lung human tumor cell lines were obtained from the American Type Culture Collection. The HT-29 colon cell line was cultured in RPMI 1640 with 10% heat inactivated fetal bovine serum (HIFBS), the MCF-7 breast cell line in Iscove's modified Eagles medium with 5% HIFBS plus 10^-9 M insulin, and the SKMES1 lung cell line in Eagle's minimal essential medium with 10% non-heat inactivated FBS.
as §1

[8] = test system: MDAY-D2 tumor; experiment: BMOV microspheres, tumor growth in mice; format: in vivo; conditions: s.c.
Protocol: (§2) Twenty of twenty-four mice were injected subcutaneously with […] of MDAY-D2 cells with density of 10×10^6/ml. On day 6 the mice were divided into 6 groups. Group 1, empty control, group 2, tumor control, group 3, were injected subcutaneously with 0.25 mg/100 ul BMOV, twice a day. Group 4 was injected IP with 20 mg PLLA microspheres containing 5 mg of BMOV. Group 5 was injected IP with 10 mg of BMOV microspheres on day 6 and day 9 respectively. Group 6 was injected intramuscularly with 10 mg of BMOV microspheres on day 6 and day 9. On day 16, the mice were sacrificed and tumors were dissected.

[9] = Solubility of vanadium complexes in PBS/ALB; format: physicochemical; conditions: 10 mM PBS with albumin, pH 7.4
Protocol: Quantitative analysis (UV/VIS spectrophometric analysis) was done with different concentrations of vanadium solutions to obtain the wavelengths of peak absorbance and the calibration equations. Solubility of vanadium was studies in 10 mM phosphate buffered saline with albumin (PBS/ALB) (pH 7.4). 1%, 5%, 10%, and 20% (% vanadium complex in PCL) of each organic complex form of vanadium were encapsulated in a biodegradable polymer PCL and/or in blends of PLC with MePEG (MW 350) to produce a polymeric drug delivery product called a “thermopaste”. In vitro release studies of the various forms of vanadium from thermopastes were carried out at 37° C. in PBS/ALB with vanadium release measured by UV/VIS absorbance spectroscopy.

[10] = Body weights of mice, BMOV microsphere study; format: in vivo; conditions: 0.25 mg × 1, subcutaneous, in g (unit assumed)
Protocol: as §2

[11] = fluorescence assay (square brackets)

Q: Which “estimated stability constants for first order complexes of paclitaxel-cyclodextrins” value [1] does the source give for `OC[C@H]1O[C@@H]2O[C@H]3[C@H](O)[C@@H](O)[C@@H](O[C@H]4[C@H](O)[C@@H](O)[C@@H](O[C@H]5[C@H](O)[C@@H](O)[C@@H](O[C@H]6[C@H](O)[C@@H](O)[C@@H](O[C@H]7[C@H](O)[C@@H](O)[C@@H](O[C@H]8[C@H](O)[C@@H](O)[C@@H](O[C@H]9[C@H](O)[C@@H](O)[C@@H](O[C@H]1[C@H](O)[C@H]2O)O[C@@H]9CO)O[C@@H]8CO)O[C@@H]7CO)O[C@@H]6CO)O[C@@H]5CO)O[C@@H]4CO)O[C@@H]3CO` [γ-CD, γ-cyclodextrin] here?
A: Its value is 3.1 M⁻¹.

Q: What about the “stability constants for second order complexes of paclitaxel-cyclodextrins” value [1] of the same compound?
A: The value was 785 M⁻¹.

Q: For `CC(=O)O[C@H]1C(=O)[C@@]2(C)[C@H]([C@H](OC(=O)c3ccccc3)[C@]3(O)C[C@H](OC(=O)[C@H](O)[C@@H](NC(=O)c4ccccc4)c4ccccc4)C(C)=C1C3(C)C)[C@]1(OC(C)=O)CO[C@@H]1C[C@@H]2O` [paclitaxel], which “percent of total released from the microspheres” value (shortened to “percent of total released”) [2, 11] is on record?
A: Its value is 6%.

Q: What about the “percent of total released” value ([2]; uv/vis assay) of the same compound?
A: Its value is 10.3%.

Q: What about the “fold increase over the solubility of paclitaxel in water” value [3] of the same compound?
A: The value was about 2000 fold.

Q: And the “degradation rate constant k (pseudo-first order)” value ([4]; 1 μg/ml paclitaxel, 1% HPβCD, 55° C.)?
A: Its value is 0.00338 h⁻¹.

Q: What about the degradation rate constant ([4]; 10% HPβCD (FIG. 47 legend: 20 μg ml^−1, 37° C.)) of the same compound?
A: Its degradation rate constant is 0.00178 h⁻¹.

Q: What about the degradation rate constant ([4]; 10% HPγCD (FIG. 47 legend: 20 μg ml^−1, 37° C.)) of the same compound?
A: The degradation rate constant was 0.00096 h⁻¹.

Q: Which “times lower than the stability constant in the absence of ethanol” value ([1]; 50% ethanol) does the source give for Hydroxypropyl-β-cyclodextrin [HPβCD] here?
A: Its value is “about 300 times”.

Q: What about the “apparent stability constant for the complexation with paclitaxel” value ([1]; in the presence of 50% ethanol) of the same compound?
A: The value was 26.57 M⁻¹.

Q: And the “estimated stability constants for first order complexes of paclitaxel-cyclodextrins” value [1]?
A: The value was 7.2 M⁻¹.

Q: And the “stability constants for second order complexes of paclitaxel-cyclodextrins” value [1]?
A: The value was 7965 M⁻¹.

Q: What does the source list for `CC[C@]1(O)C[C@@H]2CN(CCc3c([nH]c4ccccc34)[C@@](C(=O)OC)(c3cc4c(cc3OC)N(C)[C@H]3[C@@](O)(C(=O)OC)[C@H](OC(C)=O)[C@]5(CC)C=CCN6CC[C@]43[C@@H]65)C2)C1` [Vinblastine, vinblastine]?
A: angiogenesis inhibition on the CAM ([5]; 0.25%, 0.5% and 1% in PCL pellets): effective in inhibiting angiogenesis; drug loading that was toxic to the embryo [5]: exceeding 2%

Q: Which results are given for hydroxypropyl-γ-cyclodextrin [HPγCD]?
A: estimated stability constants for first order complexes of paclitaxel-cyclodextrins [1]: 5.8 M⁻¹; stability constants for second order complexes of paclitaxel-cyclodextrins [1]: 1886 M⁻¹

Q: With `CC[C@]1(O)C[C@H]2CN(CCc3c([nH]c4ccccc34)[C@@](C(=O)OC)(c3cc4c(cc3OC)N(C=O)[C@H]3[C@@](O)(C(=O)OC)[C@H](OC(C)=O)[C@]5(CC)C=CCN6CC[C@]43[C@@H]65)C2)C1` [vincristine] as the compound, how does the “angiogenesis inhibition on the CAM” value ([5]; 0.5% and 0.1% drug loading in PCL pellets) read?
A: The value was “all of the CAMs tested”.

Q: What about the “drug loading that was toxic to the embryo” value [5] of the same compound?
A: Its value is “exceeding 2%”.

Q: Which “percent of total released” value [2, 11] does the source give for baccatin here?
A: The value was 60%.

Q: And the “percent of total released” value ([2]; uv/vis assay)?
A: The value was 55%.

Q: Which “survival compared to untreated controls” value ([6]; continuous exposure, 50 μM) does the source give for `Cc1occc(=O)c1[O-].Cc1occc(=O)c1[O-].[O]=[V+2]` [BMOV, Bis[maltolato(oxovanadium)] (IV)]] here?
A: The value was 49%.

Q: And the effect on cells ([6]; one hour exposure, up to 50 μM)?
A: The effect on cells was “very little effect”.

Q: What about the “antineoplastic effect in vitro” value [7] of the same compound?
A: The value was “antineoplastic effect of BMOV have been shown in vitro”.

Q: What about the “Tumor weight, Average” value [8] of the same compound?
A: The value was 0.15.

Q: And the “Tumor weight, individual mice” value ([8]; listed as BMOV solution)?
A: The value was 0.04 and 0.4 and 0.12 and 0.07.

Q: What about the “rate and extent of solubility, order” value [9] of the same compound?
A: Its value is “V5>BMOV & BEMOV>PRC-V”.

Q: What about the “Body weights, Average” value [10] of the same compound?
A: The value was 17.87.

Q: And the “Body weights, individual mice” value ([10]; listed as BMOV Solution)?
A: The value was 18.4 and 17.3 and 18 and 17.8.
